Laboratory results taken from publication PMC7144325, “Discovery of novel ATAD2 bromodomain inhibitors that trigger apoptosis and autophagy in breast cells by structure-based virtual screening” (Journal of Enzyme Inhibition and Medicinal Chemistry, 2020).
“Also recorded” adds a separate entry of the source. Like-named read-outs stand apart in the source and are kept apart here.

Legend:
MDA-MB-231 cells [1] = assay: Cell viability assay (MTT), MDA-MB-231; format: cell-based; settings: for antiproliferatory inhibition rate in cell viability assay: at 20 µM, MDA-MB-231 cells; for IC50: Homo sapiens, MDA-MB-231, MTT, read-out: IC50 antiproliferative, MDA-MB-231
Description: MDA-MB-231cells were purchased from American Type Culture Collection (ATCC, Manassas, VA, USA). Cells were cultured in DMEM with 10% foetal bovine serum and incubated with 5% CO2. Antibodies used in this study were as follow: ATAD2 (ab176319, abcam), c-Myc (ab32072, abcam), cMyc^Ser62 (ab51156, abcam), Bax(5023, CST), Bcl-2(15071, CST), caspase8(9746, CST), caspase-3 (9665, CST), AKT (4691, CST), mTOR (2983, CST), p-mTOR^Ser2448 (5536,CST), ULK1 (6439, CST), p-ULK1^Ser555 (5869, CST), p62 (5114, CST), Beclin1 (4122, CST), LC3B (3868, CST), β-actin (3700, CST).
(§1) Cells were dispensed in 96-well plates at a density of 5 × 10^4 cells/ml. After 24 h incubation, cells were treated with different concentrations of compounds for the indicated periods. Cell viability was measured by the MTT assay.

ATAD2 bromodomain [2] = biological target: T1, ATAD2 bromodomain (Homo sapiens, UniProt Q6PL18); assay: TR-FRET assay, ATAD2 bromodomain; format: binding
T1 sequence (Q6PL18 980-1092 limits assumed): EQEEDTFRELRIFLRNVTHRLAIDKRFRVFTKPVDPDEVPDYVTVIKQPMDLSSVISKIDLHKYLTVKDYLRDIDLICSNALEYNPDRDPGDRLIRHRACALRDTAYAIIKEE
Description: (§2) The assay was performed by TR-FRET technology using recombinant bromodomain and BET Ligand[27]. The compounds were diluted in 100% DMSO. They were diluted 20 fold in 5% DMSO in Reaction Buffer and 2 µl of the dilution was added to a 20 µl reaction. The reaction mixture incubated for 180 min prior to reading the TR-FRET signal. TR-FRET was recorded as the ratio of the fluorescence of the acceptor and the donor dyes (acceptor/donor). Binding experiments were performed in duplicate at each concentration. The TR-FRET data were analysed using the computer software, Graphpad Prism.

MDA-MB-231 cells [3] = assay: TUNEL apoptosis assay; format: cell-based; settings: MDA-MB-231, 2.5 μM, 24 h
Description: TUNEL staining was also used to detect cell apoptosis. Cells were treated with DMSO or AM879 and then formalin-fixed.

[4] = tested on: MDA-MB-231, MDA-MB-436, MDA-MB-468, BT474 and MCF-7 cells; assay: Anti-proliferation activity on breast cancer cell panel (MTT); format: cell-based; settings: MDA-MB-231, MDA-MB-436, MDA-MB-468, BT474 and MCF-7 cells (Figure S1)
Description: as §1

BRD3(2) = biological target: T2, BRD3(2) (Homo sapiens, UniProt Q15059); assay: TR-FRET assay, BRD3(2); format: binding
T2 construct: against the first and second bromodomains of BRD2, BRD3 and BRD4
Description: as §2

[5] = tested on: ATAD2, c-Myc, p-cMyc in MDA-MB-231 cells; assay: Western blot of ATAD2, c-Myc and p-cMyc; format: cell-based; settings: MDA-MB-231, 1.25, 2.5 and 5.0 µM, 24 h
Description: (§3) Adherent and floating cells were collected after treatment with AM879 for indicated times. Cells were lysed in a lysis buffer consisting of Hepes 50 mM pH 7.4, Triton-X-100 1%, sodium orthovanada 2 mM, sodium fluoride 100 mM, edetic acid 1 mM, PMSF 1 mM, aprotinin (Sigma, MO, USA) 10 mg/L and leupeptin (Sigma) 10 mg/L at 4 °C for 1 h. After 12,000 rpm centrifugation for 15 min, the protein content of supernatant was determined by the Bio-Rad DC protein assay (Bio-Rad Laboratories, Hercules, CA, USA). Equal amounts of the total protein were separated by 10–15% SDS-PAGE and transferred to PVDF membranes, and the membranes were soaked in blocking buffer (5% skimmed milk or BSA). Proteins were detected using primary antibodies, followed by HRP-conjugated secondary antibody and visualised by using ECL as the HRP substrate. Quantity One 4.4 was used to quantify.

[6] = tested on: Bax, Bcl-2, Caspase8, Caspase3 in MDA-MB-231 cells; assay: Western blot of Bax, Bcl-2, Caspase8 and Caspase3; format: cell-based; settings: MDA-MB-231, 1.25, 2.5 and 5 μM, 24 h
Description: as §3

BRD4(1) = biological target: T3, BRD4(1) (Homo sapiens, UniProt O60885); assay: TR-FRET assay, BRD4(1); format: binding
T3 construct: against the first and second bromodomains of BRD2, BRD3 and BRD4
Description: as §2

BRD2-4 = assay: TR-FRET selectivity, statement for BRD2, BRD3 and BRD4 together; format: binding; settings: first and second bromodomains
Description: as §2

BRD4(2) = biological target: T4, BRD4(2) (Homo sapiens, UniProt O60885); assay: TR-FRET assay, BRD4(2); format: binding
T4 construct: against the first and second bromodomains of BRD2, BRD3 and BRD4
Description: as §2

MDA-MB-231 cells [7] = assay: Apoptosis assay, flow cytometry of Annexin-V/PI double staining; format: cell-based; settings: MDA-MB-231, 1.25, 2.5 and 5 μM, 24 h
MDA-MB-231 cells [8] = assay: Autophagy assay, GFP/mRFP-LC3 puncta; format: cell-based; settings: MDA-MB-231, GFP-mRFP-LC3, 24 h
[9] = tested on: ULK1, p-ULK1, Beclin 1, p62, LC3 in MDA-MB-231 cells; assay: Western blot of ULK1, p-ULK1, Beclin 1, SQSTM1/p62 and LC3; format: cell-based; settings: MDA-MB-231, 1.25, 2.5, 5 µM, 24 h
Description: as §3

BRD2(2) = biological target: T5, BRD2(2) (Homo sapiens, UniProt P25440); assay: TR-FRET assay, BRD2(2); format: binding
T5 construct: against the first and second bromodomains of BRD2, BRD3 and BRD4
Description: as §2

BRD2(1) = biological target: T6, BRD2(1) (Homo sapiens, UniProt P25440); assay: TR-FRET assay, BRD2(1); format: binding
T6 construct: against the first and second bromodomains of BRD2, BRD3 and BRD4
Description: as §2

[10] = tested on: PI3K-AKT-mTOR signalling in MDA-MB-231 cells; assay: Western blot of PI3K-AKT-mTOR signalling; format: cell-based; settings: MDA-MB-231, 1.25, 2.5, 5 µM, 24 h
Description: as §3

BRD3(1) = biological target: T7, BRD3(1) (Homo sapiens, UniProt Q15059); assay: TR-FRET assay, BRD3(1); format: binding
T7 construct: against the first and second bromodomains of BRD2, BRD3 and BRD4
Description: as §2

[11] = design: method as in PMID 29043777, PMID 30226378, PMID 31398032; settings: in vitro or vivo cellular assays; cited from earlier work
[12] = design: method as in PMID 27530368; settings: in vivo as printed; cited from earlier work
ATAD2 bromodomain [13] = biological target: T1, ATAD2 bromodomain; settings: cited from earlier work
BET = tested on: BET; design: method as in PMID 26230603; settings: ATAD2 over BET; cited from earlier work

T7 sequence (Q15059 34-140 limits assumed): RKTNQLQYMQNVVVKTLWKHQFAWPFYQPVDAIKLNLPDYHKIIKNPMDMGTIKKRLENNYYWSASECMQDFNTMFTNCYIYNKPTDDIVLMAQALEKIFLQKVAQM
T2 sequence (Q15059 306-415 limits assumed): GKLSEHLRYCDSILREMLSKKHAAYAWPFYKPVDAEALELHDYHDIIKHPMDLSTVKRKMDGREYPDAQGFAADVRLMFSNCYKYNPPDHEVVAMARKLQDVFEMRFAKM
T5 sequence (P25440 344-453 limits assumed): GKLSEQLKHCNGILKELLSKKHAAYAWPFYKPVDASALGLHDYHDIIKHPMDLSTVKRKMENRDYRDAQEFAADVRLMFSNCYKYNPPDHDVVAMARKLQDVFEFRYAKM
T6 sequence (P25440 74-180 limits assumed): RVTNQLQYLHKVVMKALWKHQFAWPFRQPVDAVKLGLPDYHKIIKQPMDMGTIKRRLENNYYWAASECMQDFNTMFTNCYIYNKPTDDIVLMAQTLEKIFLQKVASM

CCn1c(SCC(C)=O)nc2c1c(=O)[nH]c(=O)n2C [AG-690]
antiproliferatory inhibition rate in cell viability assay (MDA-MB-231 cells [1]): less potency than AM879
inhibition at 20 µM (ATAD2 bromodomain [2]; at 20 µM, read-out: ATAD2 enzyme inhibition rate): 79%

CC1=C(C#N)c2nc(N)c(C#N)c(C)c2/C1=C\c1ccc(-c2cc(C(=O)O)ccc2Cl)o1 [AM879]
apoptosis by TUNEL assay (MDA-MB-231 cells [3]): obvious FITC fluorescence were aggregated in the nucleus
anti-proliferation activity on breast cancer cells [4]: potent antiproliferatory activity
IC50 (MDA-MB-231 cells [1]; 24 h): 2430 nM
IC50 (MDA-MB-231 cells [1]; 48 h): 2060 nM
IC50 (MDA-MB-231 cells [1]; 72 h): 1050 nM
antiproliferatory inhibition rate in cell viability assay (MDA-MB-231 cells [1]): 90%
IC50 (BRD3(2)): > 50000 nM
expression of ATAD2, c-Myc and p-cMyc [5]: suppressed the expression of c-Myc; also recorded: inhibited the expression of ATAD2, c-Myc and the phosphorylation of c-Myc
expression of Bax, Bcl-2, Caspase8 and Caspase3 [6]: elevated the expression of Bax, reduced the expression of Bcl-2, accompanied with the cleavage of caspase3 and caspase8
IC50 (BRD4(1)): > 50000 nM
inhibitory activity against BRD2-4 (BRD2-4): no inhibitory activity
inhibitory activity against BRD2-4 (BRD2-4; listed as AM-879): no activity
IC50 (BRD4(2)): > 50000 nM
apoptotic cells by Annexin-V/PI staining (MDA-MB-231 cells [7]): significant increase in early and late apoptotic cells
autophagy induction (LC3 puncta) (MDA-MB-231 cells [8]): obvious aggregation of LC3 puncta
autophagy induction (LC3 puncta) (MDA-MB-231 cells [8]; listed as AM978): induce autophagy
expression of ULK1, p-ULK1, Beclin 1, SQSTM1/p62 and LC3-II [9]: elevation of ULK1, p-ULK1, Beclin 1 and LC3-II in a dose-dependent manner, as well as degradation of SQSTM1/p62
IC50 (BRD2(2)): > 50000 nM
IC50 (ATAD2 bromodomain [2]; Table 3, read-out: IC50 ATAD2): 3560 nM
IC50 (BRD2(1)): > 50000 nM
PI3K-AKT-mTOR signalling protein expression [10]: obviously downregulated expression of PI3K, AKT, mTOR and mTOR^Ser2448
IC50 (BRD3(1)): > 50000 nM

COc1cc(Cl)c(C(=O)N[C@@H](CN[C@H]2CC[C@@H](N)CC2)Cc2ccc(C#N)cc2)cc1-c1ccc(CN[C@H](C)c2ccc(C)cc2)o1 [BAY-850, reference compound]
activity in cellular assays [11]: lack activity
IC50 (ATAD2 bromodomain [2]; read-out: IC50 against ATAD2 bromodomain): 242 nM

CO[C@H]1CNC[C@@H](OCC2CCC(F)(F)CC2)[C@@H]1Nc1ncc(-c2cncc(C)c2)c2cc(C)c(=O)[nH]c12 [GSK8814]
antiproliferative activity [12]: weak antiproliferative

CC1(C2CC2)NC(=O)N(CC(=O)Nc2ccc(Br)c(S(=O)(=O)N3CCCCC3)c2)C1=O (stereo not shown) [compound 23]
activity in cellular assays [11]: lack activity

Cc1ccc(-c2cnc(NC3CC4CCC(N4)C3CCC3CCC(F)(F)CC3)c3[nH]c(=O)c(C)cc23)cn1 (stereo not shown) [compound 26]
activity in cellular assays [11]: lack activity

Cc1cncc(-c2cnc(N[C@@H]3CCNC[C@H]3OCC3CCS(=O)(=O)CC3)c3[nH]c(=O)c(C)cc23)c1 [compound 38]
ATAD2 potency (ATAD2 bromodomain [13]): 100 nM
BET selectivity (BET): 100 fold
